# Reference: US20260272871A1, “USE OF RETINOIC ACID RECEPTOR ACTIVATOR AND COMPOSITION THEREOF IN REGENERATION AND REPAIR OF MAMMALS” (INSTITUTE OF ZOOLOGY, CHINESE ACADEMY OF SCIENCES, priority 2022, published 2026)
# Entries after “also recorded” stand apart in the source; their conditions may differ.
# Legend:
# [1] = system: 2 mm diameter mouse ear hole; assay: 2 mm ear hole trauma mouse model (ear hole closure); format: in vivo, C57BL/6 mice; settings: for healing of 2 mm ear holes by inhibitors of ferroptosis and autophagy: 10-20 mg/kg, measured 21 days after damage, vs DMSO and CHX, FIG. 3; for ear hole regeneration (healing) on interfering with potential RA targets: 10 or 20 mg/kg per reagent, 21 days after the trauma, FIG. 5B
# [2] = system: 4 mm diameter mouse ear hole; set-up: species or system mice; settings: in vivo
# scalded skin of mice = assay: Scald scar formation in mice; format: in vivo; settings: after 40 days of administration, after hair shaving, vs Vehicle; FIG. 7
# Method: Experimental method: 7-week-old mice were used and (1) mice were anesthetized by intraperitoneal injection of 0.5% pentobarbital sodium (100 μl/10 g b.w.); (2) the back was shaved, and the skin was disinfected with 75% alcohol. (3) the mice were scalded with boiling water for 10-15 seconds. The scald area was a circle with a diameter of 1.5 cm. […] (5) wound repair status was detected.
smiles,measurement,setting,value
O=C1OC(COc2ccccc2[N+](=O)[O-])CC1Cc1ccccc1 (stereo not shown) [3BDO],healing of 2 mm ear holes by inhibitors of ferroptosis and autophagy,[1],Neither inhibitors of ferroptosis nor autophagy could promote the healing of the ear hole like CHX
Cc1ccc(C2=CCC(C)(C)c3ccc(C#Cc4ccc(C(=O)O)cc4)cc32)cc1 [AGN193109],effect of RAR inhibitor on CHX-induced ear hole healing,"[1]; CHX 20 mg/kg + AGN 0.75 mg/kg i.p., 21 days after damage, FIG. 4",completely inhibit the healing of the ear holes induced by CHX
same,effect of RAR inhibitor on the coordinated effect of CHX+RA,"[1]; CHX 20 mg/kg + RA 5 mg/kg + AGN 0.75 mg/kg i.p., 21 days after damage, FIG. 4",could still be inhibited
"COc1ccc(C[C@H]2NC[C@H](O)[C@H]2OC(C)=O)cc1 [Ani, Anisomycin]",healing of the 2 mm ear hole,"[1]; mouse, in vivo",could significantly promote the healing of the ear hole
Cc1cc(Nc2cc(Cl)nc(Oc3ccc([N+](=O)[O-])cc3)n2)n[nH]1 [Autophinib],healing of 2 mm ear holes by inhibitors of ferroptosis and autophagy,[1],Neither inhibitors of ferroptosis nor autophagy could promote the healing of the ear hole like CHX
"C[C@@H]1C[C@@H]([C@H](O)CC2CC(=O)NC(=O)C2)C(=O)[C@@H](C)C1 [CHX, 4-((R)-2-((1S,3S,5S)-3,5-dimethyl-2-oxocyclohexyl)-2-hydroxyethyl)piperidine-2,6-dione]",HE staining of auricle tissue 180 days after ear hole closure,"[1]; mouse, in vivo","regeneration of tissues and tissue derivatives such as hair follicles, glands, cartilage, muscles and blood vessels"
same,HE staining of mouse auricle tissue,"[1]; mouse, in vivo",the trauma had completely healed
same,"HE staining of mouse auricle tissue, 15th day","[1]; mouse, in vivo",healed the tissue after damage and formed granulation tissue
same,KI67 immunohistochemical staining of mouse auricle tissue,"[1]; mouse, in vivo",expressed a large amount of KI67
same,concentration (dose) above which the ear hole wound was completely closed,"[1]; mouse, in vivo",greater than 8 mg/kg
same,dose dependence of promotion of 2 mm ear hole healing,"[1]; mouse, in vivo",dose-dependent
same,effect of different administration manners on ear hole healing,"[1]; mouse, in vivo",different manners of administration had the effect of promoting regeneration
same,healing condition of 2 mm ear hole (photograph),"[1]; mouse, in vivo",had completely closed
same,healing of the 2 mm ear hole,"[1]; mouse, in vivo",could significantly promote the healing of the ear hole; also recorded: the healing effect of CHX was better
same,closure of 2 mm diameter ear holes at different concentrations of CHX,"[1]; mouse, in vivo, ip",promoted the closure
same,closure of 4 mm diameter ear holes,[2],"promoted the shrinkage of ear hole wounds, but could not completely close them; also recorded: complete closure of the ear holes could be achieved"
same,wound area of the 4 mm mouse ear hole,[2],significantly reduced
"CC1=C(/C=C/C(C)=C/C=C/C(C)=C/C(=O)O)C(C)(C)CCC1 [RA, all-trans retinoic acid]",closure of the ear hole with RA alone,"[1]; RA 5 mg/kg, 20 mg/kg vs DMSO, 21 days after ear hole damage, FIG. 5A",promote the closure of the ear hole in a dose-dependent manner
same,scar area after scald,scalded skin of mice,significantly reduce the scar area
CCC(CC)C(c1ccc(Nc2nc3ccccc3s2)cc1)n1cncn1 (stereo not shown) [Talarozole],ear hole regeneration (healing) on interfering with potential RA targets,[1],could also promote ear hole regeneration
O=S(=O)(NCCN1CCNCC1)c1ccc(NC2CCCCC2)c(NCc2ccccc2)c1 [UAMC-3203],healing of 2 mm ear holes by inhibitors of ferroptosis and autophagy,[1],Neither inhibitors of ferroptosis nor autophagy could promote the healing of the ear hole like CHX
CC1=C(/C=C/C(C)=C/C=C/C(C)=C/CO)C(C)(C)CCC1 [vitamin A],ear hole regeneration (healing) on interfering with potential RA targets,[1],could also promote ear hole regeneration
